In brackets after ≈: the same amount, converted by molar mass. Like-named read-outs stand apart in the source and are kept apart here.
Experiments:
Format in all cases: cell-based
[1] = test system: S. aureus VRS1 MRSA VAN resistant; test: MIC, S. aureus VRS1; conditions: Staphylococcus aureus, Table 2
[2] = test system: S. epidermidis NRS101 MRSE; test: MIC, S. epidermidis NRS101; conditions: Staphylococcus epidermidis; Table 2; read-out: MIC S. epidermidis NRS101 MRSE AMG, ERY resistant
[3] = test system: S. aureus NRS127 MRSA LZD resistant; test: MIC, S. aureus NRS127; conditions: Staphylococcus aureus; Table 2
[4] = test system: Haemophilus influenzae ATCC 49247; test: MIC, H. influenzae ATCC 49247; conditions: ATCC49247, Table 4
[5] = test system: Enterococcus faecium ATCC 19434; test: MIC, E. faecium ATCC 19434; conditions: ATCC19434, Table 2
[6] = test system: S. aureus (MRSA) ATCC 43300; test: MIC, S. aureus ATCC 43300; conditions: Staphylococcus aureus; Table 2; read-out: MIC S. aureus (MRSA) ATCC 43300 Heterogeneous MRSA strain
[7] = test system: S. aureus NRS482 MRSA FQ resistant; test: MIC, S. aureus NRS482; conditions: Staphylococcus aureus; Table 2
[8] = test system: Escherichia coli ATCC 25922; test: MIC, broth microdilution, E. coli ATCC 25922; conditions: ATCC25922, Table 1, wild type strain
S. aureus NRS1 MRSA = test: MIC, S. aureus NRS1; conditions: Staphylococcus aureus; Table 2; read-out: MIC S. aureus NRS1 MRSA AMG & TET resistant
[9] = test system: human hepatic cell line (HepG2 ATCC HB-8065); test: Human cell viability assay (CellTiter-Glo), HepG2; conditions: HepG2, 24 h incubation, tested over 1-128 μg/mL, read-out: IC50 values against HepG2
Procedure: Compounds are assessed for potential non-specific cytotoxic effects against a human hepatic cell line (HepG2 ATCC HB-8065). HepG2 cells are seeded at 20,000 cells/well in 96-well microtitre plates in minimal essential medium (MEM) supplemented with a final concentration of 10% FBS and 1 mM sodium pyruvate. After 24 h compound dilutions are prepared in Dulbecco's minimum essential media (DMEM) supplemented with final concentrations of 0.001% FBS, 0.3% bovine albumin and 0.02% HEPES and added to cells. Compounds are tested in two-fold serial dilutions over a final concentration range of 1-128 μg/mL in a final DMSO concentration of 1% vol/vol. Chlorpromazine is used as a positive control. Cells are incubated with compound at 37° C. and 5% CO2 for a further 24 h, after which time the CellTiter-Glo reagent (Promega) is added. Luminescence is measured on a BMG Omega plate reader. Data are analysed using GraphPad Prism software to determine the concentration of compound that inhibits cell viability by fifty percent (IC50).

[10] = test system: Staphylococcus aureus ATCC 29213; test: MIC, broth microdilution, S. aureus ATCC 29213
[11] = test system: S. aureus SACPX1-SP25 MSSA - FQ resistant; test: microbe, parasite or virus in culture; conditions: Staphylococcus aureus, ATCC 29213 / MSSA, read-out: MIC S. aureus SACPX1-SP25 MSSA - FQ resistant (isogenic mutant of ATCC 29213)
[12] = ATCC29213, Table 1, wild type strain, read-out: MIC S. aureus ATCC 29213
[13] = ATCC 29213 / MSSA, Table 2, read-out: MIC S. aureus (MSSA) ATCC 29213 CLSI control strain

| Compound | MIC [1] [µg/mL] | MIC [2] [µg/mL] | MIC [3] [µg/mL] | MIC [4] [µg/mL] | MIC [5] [µg/mL] | MIC [6] [µg/mL] | MIC [7] [µg/mL] | MIC [8] [µg/mL] | MIC (S. aureus NRS1 MRSA) [µg/mL] | IC50 [9] [µg/mL] | MIC [10, 12] [µg/mL] | MIC [10, 13] [µg/mL] | MIC [11] [µg/mL] |
| --- | --- | --- | --- | --- | --- | --- | --- | --- | --- | --- | --- | --- | --- |
| Cc1c(-c2cc(F)c(CO)cc2F)ccc2c3ocnc3c(=O)n(C3CC3)c12 [Compound 25, 5-cyclopropyl-7-[2,5-difluoro-4-(hydroxymethyl)phenyl]-6-methyl-oxazolo[4,5-c]quinolin-4-one] | < 1 | < 1 | < 1 | < 1 | 10 to 100 (≈ 26.2 to 262 µM) | < 1 | < 1 | 1 to 10 (≈ 2.62 to 26.2 µM) | < 1 | 10 to 100 (≈ 26.2 to 262 µM) | < 1 | < 1 | – |
| C[C@H]1COc2c(-c3ccc(N)nc3)ccc3c4ocnc4c(=O)n1c23 [Compound 95, (-2S)-6-(6-aminopyridin-3-yl)-2-methyl-4,11-dioxa-1,13-diazatetracyclo[7.6.1.0^5,^16.0^10,^14]hexadeca-5(16),6,8,10(14),12-pentaen-15-one] | 1 to 10 (≈ 2.99 to 29.9 µM) | 1 to 10 (≈ 2.99 to 29.9 µM) | 1 to 10 (≈ 2.99 to 29.9 µM) | < 1 | 10 to 100 (≈ 29.9 to 299 µM) | 1 to 10 (≈ 2.99 to 29.9 µM) | 1 to 10 (≈ 2.99 to 29.9 µM) | 1 to 10 (≈ 2.99 to 29.9 µM) | 1 to 10 (≈ 2.99 to 29.9 µM) | > 100 | 1 to 10 (≈ 2.99 to 29.9 µM) | 1 to 10 (≈ 2.99 to 29.9 µM) | – |
| Cc1nc2c(=O)n(C3CC3)c3c(C)c(-c4cc(F)c(N)cc4F)ccc3c2o1 [Compound 4, 7-(4-amino-2,5-difluoro-phenyl)-5-cyclopropyl-2,6-dimethyl-oxazolo[4,5-c]quinolin-4-one] | < 1 | – | < 1 | < 1 | > 100 | < 1 | < 1 | 1 to 10 (≈ 2.62 to 26.2 µM) | 1 to 10 (≈ 2.62 to 26.2 µM) | 10 to 100 (≈ 26.2 to 262 µM) | < 1 | < 1 | < 1 |
| Cc1nc2c(=O)n(C3CC3)c3cc(N4CCC(N)CC4)c(F)cc3c2o1 [Compound 49, 7-(4-amino-1-piperidyl)-5-cyclopropyl-8-fluoro-2-methyl-oxazolo[4,5-c]quinolin-4-one] | > 100 | – | 10 to 100 (≈ 28.1 to 281 µM) | 1 to 10 (≈ 2.81 to 28.1 µM) | 10 to 100 (≈ 28.1 to 281 µM) | 1 to 10 (≈ 2.81 to 28.1 µM) | 10 to 100 (≈ 28.1 to 281 µM) | 1 to 10 (≈ 2.81 to 28.1 µM) | 10 to 100 (≈ 28.1 to 281 µM) | 10 to 100 (≈ 28.1 to 281 µM) | 1 to 10 (≈ 2.81 to 28.1 µM) | 1 to 10 (≈ 2.81 to 28.1 µM) | – |
| Cc1c(-c2ccc(N)c(F)c2)ccc2c3ocnc3c(=O)n(C3CC3)c12 [Compound 38, 7-(4-amino-3-fluorophenyl)-5-cyclopropyl-6-methyl-oxazolo[4,5-c]quinolin-4-one] | – | – | – | < 1 | > 100 | – | 1 to 10 (≈ 2.86 to 28.6 µM) | 1 to 10 (≈ 2.86 to 28.6 µM) | – | > 100 | < 1 | < 1 | < 1 |
| CCn1c(=O)c2ncoc2c2ccc(-c3cc(F)c(N)cc3F)c(C)c21 [Compound 2, 7-(4-amino-2,5-difluoro-phenyl)-5-ethyl-6-methyl-oxazolo[4,5-c]quinolin-4-one] | – | – | – | 10 to 100 (≈ 28.1 to 281 µM) | > 100 | – | 1 to 10 (≈ 2.81 to 28.1 µM) | > 100 | – | 10 to 100 (≈ 28.1 to 281 µM) | 1 to 10 (≈ 2.81 to 28.1 µM) | 1 to 10 (≈ 2.81 to 28.1 µM) | 1 to 10 (≈ 2.81 to 28.1 µM) |
| Nc1cc(F)c(-c2cc3c(cc2F)c2ocnc2c(=O)n3C2CC2)cc1F [Compound 69, 7-(4-amino-2,5-difluoro-phenyl)-5-cyclopropyl-8-fluoro-oxazolo[4,5-c]quinolin-4-one] | < 1 | 1 to 10 (≈ 2.69 to 26.9 µM) | < 1 | < 1 | > 100 | < 1 | 1 to 10 (≈ 2.69 to 26.9 µM) | 1 to 10 (≈ 2.69 to 26.9 µM) | – | – | < 1 | < 1 | – |
| Cc1nc2c(=O)n(C3CC3)c3cc(N4CC[C@H](CN)C4)c(F)cc3c2o1 [Compound 52, 7-[(3R)-3-(aminomethyl)pyrrolidin-1-yl]-5-cyclopropyl-8-fluoro-2-methyl-oxazolo[4,5-c]quinolin-4-one] | 1 to 10 (≈ 2.81 to 28.1 µM) | – | 1 to 10 (≈ 2.81 to 28.1 µM) | 1 to 10 (≈ 2.81 to 28.1 µM) | 10 to 100 (≈ 28.1 to 281 µM) | < 1 | 1 to 10 (≈ 2.81 to 28.1 µM) | 1 to 10 (≈ 2.81 to 28.1 µM) | 1 to 10 (≈ 2.81 to 28.1 µM) | 10 to 100 (≈ 28.1 to 281 µM) | 1 to 10 (≈ 2.81 to 28.1 µM) | 1 to 10 (≈ 2.81 to 28.1 µM) | 1 to 10 (≈ 2.81 to 28.1 µM) |
| NC1CCN(c2nc3c(cc2F)c2ocnc2c(=O)n3C2CC2)C1 (stereo not drawn) [Compound 80, 7-(3-aminopyrrolidin-1-yl)-5-cyclopropyl-8-fluoro-oxazolo[4,5-c][1,8]naphthyridin-4-one] | – | – | – | 10 to 100 (≈ 30.4 to 304 µM) | 10 to 100 (≈ 30.4 to 304 µM) | – | – | 1 to 10 (≈ 3.04 to 30.4 µM) | – | – | 1 to 10 (≈ 3.04 to 30.4 µM) | 1 to 10 (≈ 3.04 to 30.4 µM) | 10 to 100 (≈ 30.4 to 304 µM) |
| C[C@H]1COc2c(-c3ccc(C(N)=O)cc3)ccc3c4ocnc4c(=O)n1c23 [Compound 96, 4-[(2S)-2-methyl-15-oxo-4,11-dioxa-1,13-diazatetracyclo[7.6.1.0^5,^16.0^10,^14]hexadeca-5(16),6,8,10(14),12-pentaen-6-yl]benzamide] | 1 to 10 (≈ 2.77 to 27.7 µM) | – | 1 to 10 (≈ 2.77 to 27.7 µM) | 1 to 10 (≈ 2.77 to 27.7 µM) | 10 to 100 (≈ 27.7 to 277 µM) | 1 to 10 (≈ 2.77 to 27.7 µM) | 1 to 10 (≈ 2.77 to 27.7 µM) | 10 to 100 (≈ 27.7 to 277 µM) | 1 to 10 (≈ 2.77 to 27.7 µM) | 10 to 100 (≈ 27.7 to 277 µM) | 1 to 10 (≈ 2.77 to 27.7 µM) | 1 to 10 (≈ 2.77 to 27.7 µM) | – |
| Cc1c(-c2ccc3[nH]ncc3c2)ccc2c3scnc3c(=O)n(C3CC3)c12 [Compound 109, 5-Cyclopropyl-7-(1H-indazol-5-yl)-6-methyl-thiazolo[4,5-c]quinolin-4-one] | < 1 | 1 to 10 (≈ 2.68 to 26.8 µM) | < 1 | 1 to 10 (≈ 2.68 to 26.8 µM) | > 100 | < 1 | < 1 | < 1 | < 1 | – | < 1 | < 1 | – |
| Cc1c(-c2cnc(N)nc2)ccc2c3ocnc3c(=O)n(C3CC3)c12 [Compound 14, 7-(2-aminopyrimidin-5-yl)-5-cyclopropyl-6-methyl-oxazolo[4,5-c]quinolin-4-one] | – | – | – | 1 to 10 (≈ 3 to 30 µM) | > 100 | 1 to 10 (≈ 3 to 30 µM) | 1 to 10 (≈ 3 to 30 µM) | 10 to 100 (≈ 30 to 300 µM) | 1 to 10 (≈ 3 to 30 µM) | 10 to 100 (≈ 30 to 300 µM) | < 1 | < 1 | 1 to 10 (≈ 3 to 30 µM) |

— US10385065B2, “Antibacterial compounds” (priority 2014, dated 2019)
